# Source: ChEMBL document CHEMBL1268927, “Antitumor activity of 3,4-dihydroquinazoline dihydrochloride in A549 xenograft nude mice” (Bioorg Med Chem Lett, 2010)
# Assays:
# [1] = tested on: A549; assay: Antitumor activity against human A549 cells xenografted in BALB/c mouse assessed as inhibition of tumor weight at 2 mg/kg, iv administered once per 2 days for 4 weeks measured post last dose; format: functional
# [2] = tested on: A549; assay: Antitumor activity against human A549 cells xenografted in iv dosed BALB/c mouse assessed as inhibition of tumor weight administered QD for 28 days measured post last dose; format: functional, organism-based
# [3] = tested on: Rattus norvegicus; assay: Volume of distribution in Sprague-Dawley rat at 10 mg/kg, iv; format: ADME, organism-based; design: dose 10 mg/kg, route intravenous; details: in vivo
# [4] = tested on: Mus musculus; assay: Toxicity in ICR mouse assessed as occurrence of erosion at 45 mg/kg, iv administered as single dose measured up to 10 mins; format: organism-based; design: dose 45 mg/kg, route intravenous; details: in vivo
# [5] = Mean residence time in Sprague-Dawley rat at 5 mg/kg, iv; format: ADME, organism-based; design: dose 5 mg/kg, route intravenous; details: in vivo
# [6] = tested on: Mus musculus; assay: Toxicity in ICR mouse assessed as appearance of solid perineal region at 1000 mg/kg, po administered as single dose; format: organism-based; design: dose 1000 mg/kg, route oral; details: in vivo
# [7] = tested on: A549; assay: Antitumor activity against human A549 cells xenografted in BALB/c mouse assessed as inhibition of tumor weight at 1 mg/kg, iv QD for 28 days measured post last dose; format: functional; details: A549, 672 h
# [8] = tested on: SK-BR-3; assay: Cytotoxicity against human SKBR3 cells by MTT assay; format: functional, cell-based
# [9] = tested on: Mus musculus; assay: Toxicity in ICR mouse assessed as appearance of clinical signs at 250 mg/kg, po administered as single dose; format: organism-based; design: dose 250 mg/kg, route oral; details: in vivo
# [10] = tested on: Mus musculus; assay: Toxicity in ICR mouse assessed as occurrence of inanimation at 45 mg/kg, iv administered as single dose measured up to 10 mins; format: organism-based; design: dose 45 mg/kg, route intravenous; details: in vivo
# [11] = tested on: Mus musculus; assay: Toxicity in ICR mouse assessed as loss of locomotor activity at 34.6 mg/kg, iv administered as single dose; format: organism-based; design: dose 34.6 mg/kg, route intravenous; details: in vivo
# [12] = AUC in Sprague-Dawley rat at 10 mg/kg, iv; format: ADME, organism-based; design: dose 10 mg/kg, route intravenous; details: plasma
# [13] = Toxicity in ICR mouse assessed as mortality rate at 500 mg/kg, po administered as single dose; format: organism-based; design: dose 500 mg/kg, route oral; details: in vivo, read-out: Activity
# [14] = Cmax in Sprague-Dawley rat at 10 mg/kg, iv; format: ADME, organism-based; design: dose 10 mg/kg, route intravenous; details: in vivo
# [15] = tested on: Mus musculus; assay: Toxicity in ICR mouse assessed as occurrence of inanimation at 34.6 mg/kg, iv administered as single dose; format: organism-based; design: dose 34.6 mg/kg, route intravenous; details: in vivo
# [16] = tested on: Mus musculus; assay: Toxicity in ICR mouse assessed as occurrence of diarrhea at 500 mg/kg, po administered as single dose; format: organism-based; design: dose 500 mg/kg, route oral; details: in vivo
# [17] = tested on: Mus musculus; assay: Toxicity in ICR mouse assessed as occurrence of panting at 34.6 mg/kg, iv administered as single dose; format: organism-based; design: dose 34.6 mg/kg, route intravenous; details: in vivo
# [18] = tested on: Mus musculus; assay: Toxicity in ICR mouse assessed as occurrence of panting at 45 mg/kg, iv administered as single dose measured up to 10 mins; format: organism-based; design: dose 45 mg/kg, route intravenous; details: in vivo
# [19] = Toxicity in iv dosed ICR mouse administered as single dose; format: organism-based; details: in vivo
# [20] = Toxicity in ICR mouse assessed as mortality rate at 1000 mg/kg, po administered as single dose; format: organism-based; design: dose 1000 mg/kg, route oral; details: in vivo, read-out: Activity
# [21] = Oral bioavailability in Sprague-Dawley rat at 5 mg/kg; format: ADME, organism-based; details: in vivo
# [22] = tested on: Mus musculus; assay: Toxicity in ICR mouse assessed as loss of locomotor activity at 45 mg/kg, iv administered as single dose measured up to 10 mins; format: organism-based; design: dose 45 mg/kg, route intravenous; details: in vivo
# [23] = Toxicity in ICR mouse assessed as mortality rate at 26.6 mg/kg, iv administered as single dose; format: organism-based; design: dose 26.6 mg/kg, route intravenous; details: in vivo, read-out: Activity
# [24] = tested on: Rattus norvegicus; assay: Half life in Sprague-Dawley rat at 5 mg/kg, iv; format: ADME, organism-based; design: dose 5 mg/kg, route intravenous; details: in vivo
# [25] = tested on: A549; assay: Cytotoxicity against human A549 cells by MTT assay; format: functional, cell-based
# [26] = tested on: SK-OV-3; assay: Cytotoxicity against human SKOV3 cells by MTT assay; format: functional, cell-based
# [27] = tested on: Mus musculus; assay: Toxicity in ICR mouse assessed as appearance of solid perineal region at 500 mg/kg, po administered as single dose; format: organism-based; design: dose 500 mg/kg, route oral; details: in vivo
# [28] = tested on: A549; assay: Antitumor activity against human A549 cells xenografted in BALB/c mouse assessed as inhibition of tumor weight at 2 mg/kg, iv QD for 28 days measured post last dose; format: functional; details: A549, 672 h
# [29] = Toxicity in ICR mouse assessed as mortality rate at 250 mg/kg, po administered as single dose; format: organism-based; design: dose 250 mg/kg, route oral; details: in vivo, read-out: Activity
# [30] = tested on: LNCaP; assay: Cytotoxicity against human LNCAP cells by MTT assay; format: functional, cell-based
# [31] = tested on: Rattus norvegicus; assay: Volume of distribution in Sprague-Dawley rat at 5 mg/kg, iv; format: ADME, organism-based; design: dose 5 mg/kg, route intravenous; details: in vivo
# [32] = Mean residence time in Sprague-Dawley rat at 10 mg/kg, iv; format: ADME, organism-based; design: dose 10 mg/kg, route intravenous; details: in vivo
# [33] = tested on: Mus musculus; assay: Toxicity in ICR mouse assessed as occurrence of diarrhea at 100 mg/kg, po administered as single dose; format: organism-based; design: dose 100 mg/kg, route oral; details: in vivo
# [34] = Cmax in Sprague-Dawley rat at 5 mg/kg, iv; format: ADME, organism-based; design: dose 5 mg/kg, route intravenous; details: in vivo
# [35] = Cytotoxicity against human A172 cells by MTT assay; format: functional, cell-based, A 172
# [36] = Toxicity in ICR mouse assessed as mortality rate at 34.6 mg/kg, iv administered as single dose; format: organism-based; design: dose 34.6 mg/kg, route intravenous; details: in vivo, read-out: Activity
# [37] = tested on: HeLa; assay: Cytotoxicity against human HeLa cells by MTT assay; format: functional, cell-based
# [38] = Oral bioavailability in Sprague-Dawley rat at 10 mg/kg; format: ADME, organism-based; details: in vivo
# [39] = AUC in Sprague-Dawley rat at 5 mg/kg, iv; format: ADME, organism-based; design: dose 5 mg/kg, route intravenous; details: plasma
# [40] = Toxicity in po dosed ICR mouse administered as single dose; format: organism-based; details: in vivo
# [41] = tested on: Rattus norvegicus; assay: Half life in Sprague-Dawley rat at 10 mg/kg, iv; format: ADME, organism-based; design: dose 10 mg/kg, route intravenous; details: in vivo
# [42] = tested on: Mus musculus; assay: Toxicity in BALB/c mouse xenografted with human A549 cells assessed as effect on body weight at 1 to 2 mg/kg, iv QD for 28 days measured post last dose; format: organism-based; design: dose 1-2 mg/kg, route intravenous; details: in vivo, 672 h
# [43] = tested on: Mus musculus; assay: Toxicity in ICR mouse assessed as appearance of clinical signs at 26.6 mg/kg, iv administered as single dose; format: organism-based; design: dose 26.6 mg/kg, route intravenous; details: in vivo
# [44] = tested on: Mus musculus; assay: Toxicity in BALB/c mouse xenografted with human A549 cells assessed as decrease in body weight at 2 mg/kg, iv administered once per 2 days for 4 weeks measured on day 8; format: organism-based; design: dose 2 mg/kg, route intravenous; details: in vivo
# [45] = tested on: MDA-MB-231; assay: Cytotoxicity against human MDA-MB-231 cells by MTT assay; format: functional, cell-based
# [46] = tested on: Mus musculus; assay: Toxicity in ICR mouse assessed as occurrence of erosion at 34.6 mg/kg, iv administered as single dose; format: organism-based; design: dose 34.6 mg/kg, route intravenous; details: in vivo
# [47] = tested on: A549; assay: Ratio of compound to doxorubicin activity against human A549 cells xenografted in BALB/c mouse at 2 mg/kg, iv; format: functional
smiles,measurement,setting,value
COc1cccc2c1C(=O)c1c(O)c3c(c(O)c1C2=O)C[C@@](O)(C(=O)CO)C[C@@H]3O[C@H]1C[C@H](N)[C@H](O)[C@H](C)O1 [DOXORUBICIN],inhibition in vivo at 2 mg/kg,[1],30%
CN(C)CCCCCN(C)C1=Nc2ccccc2C(CC(=O)NCc2ccccc2)N1c1ccc(-c2ccccc2)cc1 (centres undefined) [listing 1 of 2 here],inhibition,[2],Dose-dependent effect
CN(C)CCCCCN(C)C1=Nc2ccccc2C(CC(=O)NCc2ccccc2)N1c1ccc(-c2ccccc2)cc1.Cl.Cl (centres undefined),Vd,[3],0.61 L/kg
same,Activity,[4],Toxic
same,MRT,[5],5.09 h
same,Activity,[6],Toxic
same,inhibition in vivo at 1 mg/kg,[7],29%
same,IC50,[8]; sk-br-3,1.83 µM
same,Activity,[9],Non-toxic
same,Activity,[10],Toxic
same,Activity,[11],Toxic
same,AUC,[12],279 µg·h/mL
same,mortality,[13],40%
same,Cmax,[14],1030 ng/mL
same,Activity,[15],Toxic
same,Activity,[16],Toxic
same,Activity,[17],Toxic
same,Activity,[18],Toxic
same,LD50,[19],40 mg/kg
same,mortality,[20],80%
same,bioavailability,[21],98.3%
same,Activity,[22],Toxic
same,mortality,[23],0%
same,t1/2,[24],8.716 h
same,IC50,[25]; a549,5 µM
same,IC50,[26]; sk-ov-3,5.22 µM
same,Activity,[27],Toxic
same,inhibition in vivo at 2 mg/kg,[28],49%
same,mortality,[29],0%
same,IC50,[30]; lncap,5.19 µM
same,Vd,[31],0.33 L/kg
same,MRT,[32],7.19 h
same,Activity,[33],Toxic
same,Cmax,[34],460 ng/mL
same,IC50,[35]; a 172,4.61 µM
same,mortality,[36],20%
same,IC50,[37]; hela,3.11 µM
same,bioavailability,[38],70.1%
same,AUC,[39],128 µg·h/mL
same,LD50,[40],693 mg/kg
same,t1/2,[41],19.8715 h
same,Activity,[42],Non-toxic
same,Activity,[43],Toxic
same,Activity,[44],Toxic
same,IC50,[45]; mda-mb-231,1.64 µM
same,Activity,[46],Toxic
same,Ratio,[47],1.6
CN(C)CCCCCN(C)C1=Nc2ccccc2C(CC(=O)NCc2ccccc2)N1c1ccc(-c2ccccc2)cc1 (centres undefined) [listing 2 of 2 here],IC50,"[8]; Homo sapiens, SK-BR-3",2.17 µM
same,IC50,"[25]; Homo sapiens, A549",5.17 µM
same,IC50,"[26]; Homo sapiens, SK-OV-3",5 µM
same,IC50,"[30]; Homo sapiens, LNCaP",4.7 µM
same,IC50,"[35]; Homo sapiens, A 172",4.83 µM
same,IC50,"[37]; Homo sapiens, HeLa",4.04 µM
same,IC50,"[45]; Homo sapiens, MDA-MB-231",2.65 µM
